From US20190211020A1 (Agency for Science, Technology and Research, priority 2012, published 2019)

These molecules were tested on eIF4E Ser209 phosphorylation in Hela cells (assay: MNK cell-based assay (AlphaScreen SureFire, eIF4E Ser209 phosphorylation)). Details: Homo sapiens; eIF4E Ser209 phosphorylation, Hela cells, 2 hours; read-out: IC50 Hela.
Text: It has been reported that Ser209 of eIF4E is solely phosphorylated by the MNK enzymes. The ability of compounds to inhibit this process in Hela cells was investigated using the AlphaScreen SureFire® assay platform from Perkin Elmer (Waltham, Mass.). eIF4E phosphorylated on Ser209 is recognized by two antibodies, the first which is fused to a streptavidin coated donor bead binds to an epitope away from Ser209, the second which is fused to a protein A conjugated acceptor bead binds to phosphorylated Ser209. The phosphorylation of eIF4E on Ser209 brings the two antibodies into close proximity and when excited by a laser a singlet oxygen is released by the donor bead which excites the acceptor bead resulting in the emission of light. This enables the monitoring of eIF4E Ser209 phosphorylation and its inhibition in a cellular context.
Hela cells were seeded into microtitre plates (30,000 cells per well) in 100 μl of culture medium and incubated at 37° C. for 24 hours. The media was then removed by aspiration and the cells resuspended in 50 μl of serum free medium containing the test compound and incubated at 37° C. for 2 hours. The culture medium was again removed by aspiration and the cells resuspended in lysis buffer (provided in Perkin Elmer SureFire® Assay Kit). After agitation at 350 rpm for 20 minutes at 22° C., 4 μl was transferred to a 384 well OptiPlate™ (Perkin Elmer, Waltham, Mass.). To each well was added 5 μl of acceptor mix; the plate was sealed and agitated gently at 22° C. for 2 hours. Then, in subdued light, 2 μl of donor mix was added to each well, the plate was sealed, wrapped in aluminum foil and agitated gently at 22° C. for 2 hours. Emission was measured using the EnVision® plate reader (Perkin Elmer, Waltham, Mass.).
Inhibition constants (IC50) were determined by plotting AlphaScreen signal versus log compound concentration and fitting with a non-linear regression algorithm using GraphPad Prism (GraphPad Software Inc.).

IC50, < 1000 nM:
N#Cc1ccc(-c2cnc3ccc(-c4ccc(C(=O)N5CCNCC5)cc4)nn23)cc1 [Example 65, 4-(6-(4-(piperazine-1-carbonyl)phenyl)imidazo [1,2-b]pyridazin-3-yl)benzonitrile]
CCC1(NC(C)=O)CCN(C(=O)c2ccc(-c3ccc4ncc(-c5ccc(C#N)cc5)n4n3)cc2)CC1 [Example 66, N-(1-(4-(3-(4-cyanophenyl)imidazo[1,2-b]pyridazin-6-yl)benzoyl)-4-ethylpiperidin-4-yl)acetamide]
N#Cc1ccc(-c2cnc3ccc(-c4ccc(C(=O)N5CCNC(=O)C5)cc4)nn23)cc1 [Example 68, 4-(6-(4-(3-oxopiperazine-1-carbonyl)phenyl)imidazo [1,2-b]pyridazin-3-yl)benzonitrile]
CN1CCN(C(=O)c2ccc(-c3ccc4ncc(-c5ccc(C#N)cc5)n4n3)cc2)CC1=O [Example 69, 4-(6-(4-(4-methyl-3-oxopiperazine-1-carbonyl)phenyl)imidazo[1,2-b]pyridazin-3-yl)benzonitrile]
CN1CCN(C2CCN(C(=O)c3ccc(-c4ccc5ncc(-c6ccc(C#N)cc6)n5n4)cc3)CC2)CC1 [Example 70, 4-(6-(4-(4-(4-methylpiperazin-1-yl)piperidine-1-carbonyl)phenyl)imidazo [1,2-b]pyridazin-3-yl)benzonitrile]
N#Cc1ccc(-c2cnc3ccc(-c4ccc(C(=O)N5CCC6(CCCCN6)CC5)cc4)nn23)cc1 [Example 71, 4-(6-(4-(1,9-diazaspiro[5.5]undecane-9-carbonyl)phenyl)imidazo [1,2-b]pyridazin-3-yl)benzonitrile]
CN1CCN(C(=O)c2ccc(-c3ccc4ncc(-c5ccc(C#N)cc5)n4n3)cc2Cl)CC1 [Example 72, 4-(6-(3-chloro-4-(4-methylpiperazine-1-carbonyl)phenyl)imidazo[1,2-b]pyridazin-3-yl)benzonitrile]
CN1CCN(C(=O)c2ccc(-c3ccc4ncc(-c5ccc(C#N)cc5)n4n3)cc2F)CC1 [Example 73, 4-(6-(3-fluoro-4-(4-methylpiperazine-1-carbonyl)phenyl)imidazo[1,2-b]pyridazin-3-yl)benzonitrile]
Cc1cc(-c2ccc3ncc(-c4ccc(C#N)cc4)n3n2)ccc1C(=O)N1CCN(C)CC1 [Example 74, 4-(6-(3-methyl-4-(4-methylpiperazine-1-carbonyl)phenyl)imidazo[1,2-b]pyridazin-3-yl)benzonitrile]
COc1cc(C(=O)N2CCN(C)CC2)ccc1-c1ccc2ncc(-c3ccc(C#N)cc3)n2n1 [Example 78, 4-(6-(2-methoxy-4-(4-methylpiperazine-1-carbonyl)phenyl)imidazo[1,2-b]pyridazin-3-yl)benzonitrile]
CN1CCN(C(=O)c2ccc(-c3ccc4ncc(-c5ccc(C#N)cc5)n4n3)cc2[N+](=O)[O-])CC1 [Example 79, 4-(6-(4-(4-methylpiperazine-1-carbonyl)-3-nitrophenyl)imidazo[1,2-b]pyridazin-3-yl)benzonitrile]
CC(=O)Nc1cc(-c2ccc3ncc(-c4ccc(C#N)cc4)n3n2)ccc1C(=O)N1CCC(N(C)C)CC1 [Example 81, N-(5-(3-(4-cyanophenyl)imidazo[1,2-b]pyridazin-6-yl)-2-(4-(dimethylamino)piperidine-1-carbonyl)phenyl)acetamide]
CN1CCN(C(=O)c2ccc(-c3ccc4ncc(-c5ccc6c(c5)CC(=O)N6)n4n3)cc2)CC1 [Example 85, 5-(6-(4-(4-methylpiperazine-1-carbonyl)phenyl)imidazo [1,2-b]pyridazin-3-yl)indolin-2-one]
CN1CCN(C(=O)c2ccc(-c3ccc4ncc(-c5ccc6[nH]ncc6c5)n4n3)cc2)CC1 [Example 86, (4-(3-(1H-indazol-5-yl)imidazo[1,2-b]pyridazin-6-yl)phenyl)(4-methylpiperazin-1-yl)methanone]
CN1CCN(C(=O)c2ccc(-c3ccc4ncc(-c5ccc6[nH]cnc6c5)n4n3)cc2)CC1 [Example 87, (4-(3-(1H-benzo[d]imidazol-5-yl)imidazo[1,2-b]pyridazin-6-yl)phenyl)(4-methylpiperazin-1-yl)methanone]
CN1CCN(C2CCN(C(=O)c3ccc(-c4ccc5ncc(-c6ccc7c(c6)CC(=O)N7)n5n4)cc3)CC2)CC1 [Example 89, 5-(6-(4-(4-(4-methylpiperazin-1-yl)piperidine-1-carbonyl)phenyl)imidazo[1,2-b]pyridazin-3-yl)indolin-2-one]
O=C1Cc2cc(-c3cnc4ccc(-c5ccc(C(=O)N6CCC(N7CCOCC7)CC6)cc5)nn34)ccc2N1 [Example 94, 5-(6-(4-(4-morpholinopiperidine-1-carbonyl)phenyl)imidazo[1,2-b]pyridazin-3-yl)indolin-2-one]
CN1CCN(C(=O)c2ccc(-c3ccc4ncc(-c5ccc(C#N)cc5)n4c3)cc2)CC1 [Example 95, 4-(6-(4-(4-Methylpiperazine-1-carbonyl)phenyl)imidazo[1,2-a]pyridin-3-yl)benzonitrile]
N#Cc1ccc(-c2cnc3ccc(-c4ccc(C(=O)N5CCCOCC5)cc4)cn23)cc1 [Example 97, 4-(6-(4-(1,4-oxazepane-4-carbonyl)phenyl)imidazo [1,2-a]pyridin-3-yl)benzonitrile]
CCN1CCN(C(=O)c2ccc(-c3ccc4ncc(-c5ccc(C#N)cc5)n4c3)cc2)CC1 [Example 98, 4-(6-(4-(4-ethylpiperazine-1-carbonyl)phenyl)imidazo [1,2-a]pyridin-3-yl)benzonitrile]
CC(=O)NC1(C)CCN(C(=O)c2ccc(-c3ccc4ncc(-c5ccc(C#N)cc5)n4c3)cc2)CC1 [Example 99, N-(1-(4-(3-(4-cyanophenyl)imidazo[1,2-a]pyridin-6-yl)benzoyl)-4-methylpiperidin-4-yl)acetamide]
CCN(CC)C1(C)CCN(C(=O)c2ccc(-c3ccc4ncc(-c5ccc(C#N)cc5)n4c3)cc2)CC1 [Example 100, 4-(6-(4-(4-(diethylamino)-4-methylpiperidine-1-carbonyl)phenyl)imidazo[1,2-a]pyridin-3-yl)benzonitrile]
CN(CC(=O)N1CCOCC1)C(=O)c1ccc(-c2ccc3ncc(-c4ccc(C#N)cc4)n3c2)cc1 [Example 101, 4-(3-(4-cyanophenyl)imidazo[1,2-a]pyridin-6-yl)-N-methyl-N-(2-morpholino-2-oxoethyl)benzamide]
N#Cc1ccc(-c2cnc3ccc(-c4ccc(C(=O)N5CCNC(=O)C5)cc4)cn23)cc1 [Example 102, 4-(6-(4-(3-oxopiperazine-1-carbonyl)phenyl)imidazo[1,2-a]pyridin-3-yl)benzonitrile]
CN1CCCN(C(=O)c2ccc(-c3ccc4ncc(-c5ccc(C#N)cc5)n4c3)cc2)CC1 [Example 103, 4-(6-(4-(4-methyl-1,4-diazepane-1-carbonyl)phenyl)imidazo[1,2-a]pyridin-3-yl)benzonitrile]
CN1CCC(C2CCN(C(=O)c3ccc(-c4ccc5ncc(-c6ccc(C#N)cc6)n5c4)cc3)CC2)CC1 [Example 105, 4-(6-(4-(1′-methyl-4,4′-bipiperidine-1-carbonyl)phenyl)imidazo[1,2-a]pyridin-3-yl)benzonitrile]
CC1(O)CCN(C(=O)c2ccc(-c3ccc4ncc(-c5ccc(C#N)cc5)n4c3)cc2)CC1 [Example 106, 4-(6-(4-(4-hydroxy-4-methylpiperidine-1-carbonyl)phenyl)imidazo[1,2-a]pyridin-3-yl)benzonitrile]
N#Cc1ccc(-c2cnc3ccc(-c4ccc(C(=O)N5CCCNCC5)cc4)cn23)cc1 [Example 107, 4-(6-(4-(1,4-diazepane-1-carbonyl)phenyl)imidazo [1,2-a]pyridin-3-yl)benzonitrile]
N#Cc1ccc(-c2cnc3ccc(-c4ccc(C(=O)N5CCC(N)CC5)cc4)cn23)cc1 [Example 109, 4-(6-(4-(4-aminopiperidine-1-carbonyl)phenyl)imidazo[1,2-a]pyridin-3-yl)benzonitrile]
CS(=O)(=O)NC1CCN(C(=O)c2ccc(-c3ccc4ncc(-c5ccc(C#N)cc5)n4c3)cc2)CC1 [Example 111, N-(1-(4-(3-(4-cyanophenyl)imidazo[1,2-a]pyridin-6-yl)benzoyl)piperidin-4-yl)methanesulfonamide]
CN(C)C1CCN(C(=O)c2ccc(-c3ccc4ncc(-c5ccc(C#N)cc5)n4c3)cc2)CC1 [Example 112, 4-(6-(4-(4-(dimethylamino)piperidine-1-carbonyl)phenyl)imidazo[1,2-a]pyridin-3-yl)benzonitrile]
CCC1(N)CCN(C(=O)c2ccc(-c3ccc4ncc(-c5ccc(C#N)cc5)n4c3)cc2)CC1 [Example 113, 4-(6-(4-(4-amino-4-ethylpiperidine-1-carbonyl)phenyl)imidazo [1,2-a]pyridin-3-yl)benzonitrile]
